Data reported in patent US20100056564A1, “Association of an anti-atherothrombotic agent and an anti-platelet-aggregation agent” (LES LABORATOIRES SERVIER, priority 2003, published 2010).

Test system: collagen-induced platelet aggregation
Test: Inhibition of collagen-induced platelet aggregation ex vivo
Assay type: in vivo, humans
Conditions: collagen 5 μg/ml; citrated platelet-rich plasma (PRPc), aggregometer; oral administration to 18 volunteers; compound A 10 mg, clopidogrel 75 mg
Method: Measurement of the Inhibition of Collagen-Induced Platelet Aggregation:
10 mg of compound A and 75 mg of clopidogrel were administered orally for three days to 18 volunteers previously treated with 75 mg of clopidogrel for 7 days. The effect of the association of compound A and clopidogrel was compared with the effects of compound A and clopidogrel administered separately.
In the course of the test, the percentage inhibition of platelet aggregation ex vivo induced by collagen (5 μg/ml) was calculated by measuring the platelet aggregation on citrated platelet-rich plasma (PRPc) with the aid of an aggregometer.

COC(=O)[C@H](c1ccccc1Cl)N1CCc2sccc2C1 [clopidogrel]
percentage inhibition of platelet aggregation ex vivo induced by collagen: 11%
